This note sets out measurements from ChEMBL document CHEMBL1201862, “PubChem BioAssay data set” (2004).

Calls of active or inactive are those of the source.

Experiment [1] has as its target Estrogen receptor (Homo sapiens, UniProt P03372).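 Further: potency for inhibiting coactivator peptide recruitment to the receptor.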
Experiment [2] concerns the target Tyrosine-protein phosphatase non-receptor type 7 (Homo sapiens, UniProt P35236). It is filed as functional.
In experiment [3] the target is Glyceraldehyde-3-phosphate dehydrogenase (Homo sapiens, UniProt P04406).
Chain of Glyceraldehyde-3-phosphate dehydrogenase (P04406 whole entry): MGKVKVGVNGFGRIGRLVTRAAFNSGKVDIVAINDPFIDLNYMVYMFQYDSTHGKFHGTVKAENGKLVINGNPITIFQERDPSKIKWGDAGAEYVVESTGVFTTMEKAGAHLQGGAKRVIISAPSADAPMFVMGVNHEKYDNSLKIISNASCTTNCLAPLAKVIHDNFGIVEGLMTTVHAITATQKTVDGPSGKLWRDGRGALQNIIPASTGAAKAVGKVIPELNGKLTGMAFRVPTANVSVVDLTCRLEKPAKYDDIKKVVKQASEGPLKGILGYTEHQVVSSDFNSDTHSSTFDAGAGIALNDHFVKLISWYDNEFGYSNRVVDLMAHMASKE
In experiment [4] the target is T1, Dual specificity protein phosphatase 6 (Rattus norvegicus, UniProt Q64346).
T1 sequence (Q64346 whole entry): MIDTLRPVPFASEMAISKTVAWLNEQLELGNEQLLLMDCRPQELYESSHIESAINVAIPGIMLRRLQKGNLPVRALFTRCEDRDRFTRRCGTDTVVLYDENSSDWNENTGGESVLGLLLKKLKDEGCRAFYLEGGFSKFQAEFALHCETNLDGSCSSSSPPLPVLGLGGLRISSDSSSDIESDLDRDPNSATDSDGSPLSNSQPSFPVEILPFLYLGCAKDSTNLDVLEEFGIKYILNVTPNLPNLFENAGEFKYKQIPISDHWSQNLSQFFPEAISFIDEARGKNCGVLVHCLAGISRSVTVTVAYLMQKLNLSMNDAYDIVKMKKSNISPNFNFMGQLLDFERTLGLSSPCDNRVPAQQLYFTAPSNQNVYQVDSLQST

The target in experiment [5] is T1, Dual specificity protein phosphatase 6. It is filed as functional.
For experiment [6], the target named is T2, Protein skinhead-1 (Caenorhabditis elegans, UniProt P34707).
T2 sequence (P34707 whole entry): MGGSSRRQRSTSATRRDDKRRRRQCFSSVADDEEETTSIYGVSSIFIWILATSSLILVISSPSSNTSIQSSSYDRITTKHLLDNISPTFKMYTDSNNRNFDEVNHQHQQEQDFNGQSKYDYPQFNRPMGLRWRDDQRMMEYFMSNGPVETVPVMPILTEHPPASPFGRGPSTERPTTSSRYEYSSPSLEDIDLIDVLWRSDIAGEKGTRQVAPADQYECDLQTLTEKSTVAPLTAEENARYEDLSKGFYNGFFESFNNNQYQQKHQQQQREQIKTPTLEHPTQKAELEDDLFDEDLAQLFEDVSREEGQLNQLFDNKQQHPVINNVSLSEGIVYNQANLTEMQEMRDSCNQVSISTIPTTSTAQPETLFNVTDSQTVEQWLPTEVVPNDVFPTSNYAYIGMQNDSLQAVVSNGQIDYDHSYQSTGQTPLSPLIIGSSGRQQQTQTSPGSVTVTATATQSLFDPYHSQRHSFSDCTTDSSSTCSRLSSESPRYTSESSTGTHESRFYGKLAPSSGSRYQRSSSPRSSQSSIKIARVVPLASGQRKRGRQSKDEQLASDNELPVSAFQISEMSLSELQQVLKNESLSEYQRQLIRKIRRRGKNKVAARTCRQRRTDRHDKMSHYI
It is filed as functional.

Experiment [7] has as its target Peroxisome proliferator-activated receptor gamma/Nuclear receptor coactivator 2 (Homo sapiens, UniProt P37231). It is filed as functional.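 Further: agonist potency for raising coactivator recruitment to the receptor.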
Experiment [8] deals with Peroxisome proliferator-activated receptor gamma/Nuclear receptor coactivator 1 (Homo sapiens, UniProt P37231). It is filed as functional.
For experiment [9], the target named is Peroxisome proliferator-activated receptor gamma/Nuclear receptor coactivator 3 (Homo sapiens, UniProt P37231). It is filed as functional.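 Further: agonist potency for raising coactivator recruitment to the receptor.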
Chain of Peroxisome proliferator-activated receptor gamma/Nuclear receptor coactivator 3 (P37231 whole entry): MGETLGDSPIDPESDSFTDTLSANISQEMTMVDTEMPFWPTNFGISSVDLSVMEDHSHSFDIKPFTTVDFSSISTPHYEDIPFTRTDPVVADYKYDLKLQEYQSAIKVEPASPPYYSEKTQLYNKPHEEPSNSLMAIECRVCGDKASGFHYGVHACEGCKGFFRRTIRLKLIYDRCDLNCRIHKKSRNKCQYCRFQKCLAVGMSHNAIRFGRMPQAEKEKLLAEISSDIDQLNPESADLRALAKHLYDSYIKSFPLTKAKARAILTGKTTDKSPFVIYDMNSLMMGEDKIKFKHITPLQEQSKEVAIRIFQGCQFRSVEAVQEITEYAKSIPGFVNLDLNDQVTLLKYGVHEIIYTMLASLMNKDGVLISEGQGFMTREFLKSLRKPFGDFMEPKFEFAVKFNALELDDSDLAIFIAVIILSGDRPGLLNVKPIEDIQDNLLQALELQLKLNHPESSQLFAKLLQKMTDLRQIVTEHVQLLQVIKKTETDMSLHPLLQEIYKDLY
Chain of Peroxisome proliferator-activated receptor gamma/Nuclear receptor coactivator 3 (Q9Y6Q9 whole entry, further chain): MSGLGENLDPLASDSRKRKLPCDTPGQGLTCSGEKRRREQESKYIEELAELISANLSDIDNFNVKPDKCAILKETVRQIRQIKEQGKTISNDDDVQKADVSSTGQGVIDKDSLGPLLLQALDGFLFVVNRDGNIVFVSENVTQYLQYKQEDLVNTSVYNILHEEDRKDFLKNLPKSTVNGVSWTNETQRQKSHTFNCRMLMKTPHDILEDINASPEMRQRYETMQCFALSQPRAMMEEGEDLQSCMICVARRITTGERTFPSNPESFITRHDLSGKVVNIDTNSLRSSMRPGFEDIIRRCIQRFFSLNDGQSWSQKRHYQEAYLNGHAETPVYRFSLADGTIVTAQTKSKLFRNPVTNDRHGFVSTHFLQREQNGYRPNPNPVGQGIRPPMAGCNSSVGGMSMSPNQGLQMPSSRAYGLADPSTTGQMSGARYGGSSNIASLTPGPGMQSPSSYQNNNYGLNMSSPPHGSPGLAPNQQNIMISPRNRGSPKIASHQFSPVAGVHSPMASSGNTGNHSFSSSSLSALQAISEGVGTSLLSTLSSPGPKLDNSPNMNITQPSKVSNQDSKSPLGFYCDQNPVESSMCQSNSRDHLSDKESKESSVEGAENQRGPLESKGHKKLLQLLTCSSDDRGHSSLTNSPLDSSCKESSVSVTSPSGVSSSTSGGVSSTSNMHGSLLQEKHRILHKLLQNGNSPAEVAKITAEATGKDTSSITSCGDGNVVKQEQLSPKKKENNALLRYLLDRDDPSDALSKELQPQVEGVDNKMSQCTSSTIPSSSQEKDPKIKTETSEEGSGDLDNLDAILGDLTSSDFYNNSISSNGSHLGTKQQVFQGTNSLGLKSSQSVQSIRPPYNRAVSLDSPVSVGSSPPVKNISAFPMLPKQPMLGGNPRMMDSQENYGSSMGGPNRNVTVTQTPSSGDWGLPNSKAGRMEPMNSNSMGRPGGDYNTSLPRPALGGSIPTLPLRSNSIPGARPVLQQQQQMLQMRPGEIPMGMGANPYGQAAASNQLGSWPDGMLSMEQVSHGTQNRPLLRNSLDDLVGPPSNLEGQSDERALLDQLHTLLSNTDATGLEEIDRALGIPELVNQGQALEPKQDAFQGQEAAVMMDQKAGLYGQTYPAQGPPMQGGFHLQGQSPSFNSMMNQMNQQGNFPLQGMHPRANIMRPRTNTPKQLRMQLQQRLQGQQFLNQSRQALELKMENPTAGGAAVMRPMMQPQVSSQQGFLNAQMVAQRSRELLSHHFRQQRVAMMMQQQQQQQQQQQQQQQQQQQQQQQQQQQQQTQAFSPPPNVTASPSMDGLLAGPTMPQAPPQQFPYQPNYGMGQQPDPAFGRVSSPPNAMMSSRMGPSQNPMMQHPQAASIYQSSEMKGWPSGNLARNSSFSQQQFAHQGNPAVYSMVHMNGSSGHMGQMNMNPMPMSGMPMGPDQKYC
The target of experiment [10] is DNA dC->dU-editing enzyme APOBEC-3A (Homo sapiens, UniProt P31941). Put plainly: APOBEC3A DNA deaminase inhibitors, dose response, biochemical (AID 504722). In kind it is functional.
The target of experiment [11] is DNA dC->dU-editing enzyme APOBEC-3G (Homo sapiens, UniProt Q9HC16). Put plainly: Dose Response confirmation of small molecule APOBEC3G DNA Deaminase Inhibitors via a fluorescence-based single-stranded DNA deaminase assay. [Related pubchem assays (depositor defined):AID493012, AID493028]. In kind it is functional.
Chain of DNA dC->dU-editing enzyme APOBEC-3G (Q9HC16 whole entry): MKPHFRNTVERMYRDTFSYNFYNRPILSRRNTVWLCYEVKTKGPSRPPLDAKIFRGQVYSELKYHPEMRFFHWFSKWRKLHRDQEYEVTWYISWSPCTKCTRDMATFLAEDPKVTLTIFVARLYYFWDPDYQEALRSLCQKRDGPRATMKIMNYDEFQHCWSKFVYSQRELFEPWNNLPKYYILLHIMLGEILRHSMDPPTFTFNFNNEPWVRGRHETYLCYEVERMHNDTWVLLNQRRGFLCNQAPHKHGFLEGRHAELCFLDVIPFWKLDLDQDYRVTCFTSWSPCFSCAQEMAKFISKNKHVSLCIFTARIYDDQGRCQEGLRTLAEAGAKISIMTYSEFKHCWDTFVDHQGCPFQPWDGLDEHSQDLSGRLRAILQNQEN
In experiment [12] the target is T3, Leucine aminopeptidase (Plasmodium falciparum 3D7, UniProt Q8IL11).
T3 sequence (Q8IL11 whole entry): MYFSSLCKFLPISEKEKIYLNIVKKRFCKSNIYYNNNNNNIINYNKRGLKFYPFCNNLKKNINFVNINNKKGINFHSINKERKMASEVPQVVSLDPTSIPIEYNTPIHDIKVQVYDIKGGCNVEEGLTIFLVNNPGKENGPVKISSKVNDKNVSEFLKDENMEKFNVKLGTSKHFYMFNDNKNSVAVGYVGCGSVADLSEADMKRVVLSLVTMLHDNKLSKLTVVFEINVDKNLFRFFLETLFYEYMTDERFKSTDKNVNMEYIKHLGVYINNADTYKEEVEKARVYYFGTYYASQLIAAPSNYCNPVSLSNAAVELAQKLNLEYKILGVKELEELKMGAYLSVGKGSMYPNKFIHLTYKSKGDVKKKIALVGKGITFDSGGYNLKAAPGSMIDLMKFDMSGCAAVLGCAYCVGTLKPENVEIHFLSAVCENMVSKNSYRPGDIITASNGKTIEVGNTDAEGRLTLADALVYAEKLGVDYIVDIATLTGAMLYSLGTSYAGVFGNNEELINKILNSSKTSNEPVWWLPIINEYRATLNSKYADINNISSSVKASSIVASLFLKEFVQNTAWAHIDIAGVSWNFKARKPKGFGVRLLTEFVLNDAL
The experiment can be described thus: P. falciparum M17LAP inhibitors, primary screen, biochemical, fluorogenic H-Leu-NHMec substrate, 1536-well (AID 1619). It is filed as functional.

Experiment [13] has as its target T4, Aspartyl aminopeptidase (Plasmodium falciparum 3D7, UniProt Q8I2J3).
T4 sequence (Q8I2J3 whole entry): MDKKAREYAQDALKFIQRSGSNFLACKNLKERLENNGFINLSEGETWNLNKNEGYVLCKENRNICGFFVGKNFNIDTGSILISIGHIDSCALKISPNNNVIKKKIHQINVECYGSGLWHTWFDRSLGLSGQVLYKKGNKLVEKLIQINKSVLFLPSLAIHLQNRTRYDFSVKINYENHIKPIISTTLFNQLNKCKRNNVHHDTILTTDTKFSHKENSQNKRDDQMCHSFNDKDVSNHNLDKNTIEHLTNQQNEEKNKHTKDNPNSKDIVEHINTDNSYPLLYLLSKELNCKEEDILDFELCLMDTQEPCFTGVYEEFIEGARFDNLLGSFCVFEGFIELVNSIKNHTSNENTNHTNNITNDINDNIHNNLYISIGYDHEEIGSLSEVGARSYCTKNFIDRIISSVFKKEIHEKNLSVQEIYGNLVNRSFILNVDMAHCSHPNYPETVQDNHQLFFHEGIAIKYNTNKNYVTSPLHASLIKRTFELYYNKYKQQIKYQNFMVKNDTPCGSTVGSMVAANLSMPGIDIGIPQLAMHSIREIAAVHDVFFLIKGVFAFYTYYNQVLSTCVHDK
Put plainly: Counterscreen for inhibitors of M1 and M17 aminopeptidases: QFRET-based biochemical high throughput dose response assay for inhibitors of the Plasmodium falciparum M18 Aspartyl Aminopeptidase (PFM18AAP). [Related PubChem assays: 1619 (Screening assay (M17LAP inhibitors).), 1445 (Screening assay (M1AAP inhibitors).)].

In experiment [14] the target is Procathepsin L (Homo sapiens, UniProt P07711). The experiment can be described thus: cathepsin L inhibitors, dose response, counter-screen for M1/M17 aminopeptidase inhibitor project, biochemical, QFRET, 1536-well (AID 2214).
The target in experiment [15] is T5, Replicative DNA helicase DnaB (Mycobacterium tuberculosis, UniProt P9WMR3).
T5 sequence (P9WMR3 whole entry): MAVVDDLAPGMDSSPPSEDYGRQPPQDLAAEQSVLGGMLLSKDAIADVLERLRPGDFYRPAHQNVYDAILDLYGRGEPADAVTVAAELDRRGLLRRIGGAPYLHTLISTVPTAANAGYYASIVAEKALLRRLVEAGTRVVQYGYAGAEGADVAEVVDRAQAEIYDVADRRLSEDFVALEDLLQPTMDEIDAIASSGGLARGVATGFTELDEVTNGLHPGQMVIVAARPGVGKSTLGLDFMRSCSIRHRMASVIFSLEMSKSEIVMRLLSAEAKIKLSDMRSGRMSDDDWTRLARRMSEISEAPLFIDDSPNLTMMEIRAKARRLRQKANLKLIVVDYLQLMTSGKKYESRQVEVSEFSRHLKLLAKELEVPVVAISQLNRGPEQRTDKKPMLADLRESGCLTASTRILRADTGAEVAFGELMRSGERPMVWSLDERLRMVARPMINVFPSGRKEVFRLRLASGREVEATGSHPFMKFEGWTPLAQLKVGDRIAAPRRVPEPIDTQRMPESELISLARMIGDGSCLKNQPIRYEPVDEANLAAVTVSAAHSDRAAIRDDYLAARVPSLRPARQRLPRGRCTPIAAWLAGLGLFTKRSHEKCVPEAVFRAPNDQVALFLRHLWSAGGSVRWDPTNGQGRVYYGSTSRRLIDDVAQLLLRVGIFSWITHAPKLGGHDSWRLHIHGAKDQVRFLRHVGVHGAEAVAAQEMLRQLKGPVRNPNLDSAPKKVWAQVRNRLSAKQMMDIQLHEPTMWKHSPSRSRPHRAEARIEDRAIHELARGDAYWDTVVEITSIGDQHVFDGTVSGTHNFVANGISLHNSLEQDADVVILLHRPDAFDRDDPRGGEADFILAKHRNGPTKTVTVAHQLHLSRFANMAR
Put plainly: DnaB intein splicing inhibitors, dose response, biochemical, cell-free fluorescence (AID 449749). It is filed as functional.

Experiment [16] addresses T6, Protein RecA (Mycobacterium tuberculosis, UniProt P9WHJ3).
T6 sequence (P9WHJ3 whole entry): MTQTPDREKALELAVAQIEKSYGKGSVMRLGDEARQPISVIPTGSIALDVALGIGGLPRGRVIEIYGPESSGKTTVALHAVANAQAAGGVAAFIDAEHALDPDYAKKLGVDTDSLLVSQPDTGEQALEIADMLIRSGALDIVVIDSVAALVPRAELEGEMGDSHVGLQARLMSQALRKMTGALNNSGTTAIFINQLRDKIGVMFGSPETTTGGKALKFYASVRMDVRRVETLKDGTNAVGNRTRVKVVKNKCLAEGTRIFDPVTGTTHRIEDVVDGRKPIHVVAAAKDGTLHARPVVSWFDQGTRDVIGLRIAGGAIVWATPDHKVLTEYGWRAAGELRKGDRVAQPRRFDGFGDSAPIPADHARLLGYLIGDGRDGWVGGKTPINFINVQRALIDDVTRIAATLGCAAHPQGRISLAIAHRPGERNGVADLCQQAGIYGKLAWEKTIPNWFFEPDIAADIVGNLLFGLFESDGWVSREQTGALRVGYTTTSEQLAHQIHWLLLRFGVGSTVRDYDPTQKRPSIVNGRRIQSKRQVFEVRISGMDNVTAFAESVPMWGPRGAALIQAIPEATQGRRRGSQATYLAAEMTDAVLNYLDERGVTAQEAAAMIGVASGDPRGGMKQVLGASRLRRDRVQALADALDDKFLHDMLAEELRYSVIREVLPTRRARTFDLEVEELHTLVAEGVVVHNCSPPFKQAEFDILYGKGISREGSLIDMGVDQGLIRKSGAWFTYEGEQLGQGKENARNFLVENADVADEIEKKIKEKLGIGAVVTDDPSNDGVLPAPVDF
The experiment can be described thus: Fluorescence Cell-Free Homogeneous Dose Retest to Identify Inhibitors of RecA-Intein Splicing Activity. [Related pubchem assays (depositor defined):AID2097, AID2223, AID489010, AID492950]. It is filed as functional.

The target in experiment [17] is T7, Sentrin-specific protease 8 (Homo sapiens, UniProt Q96LD8).
T7 sequence (Q96LD8 whole entry): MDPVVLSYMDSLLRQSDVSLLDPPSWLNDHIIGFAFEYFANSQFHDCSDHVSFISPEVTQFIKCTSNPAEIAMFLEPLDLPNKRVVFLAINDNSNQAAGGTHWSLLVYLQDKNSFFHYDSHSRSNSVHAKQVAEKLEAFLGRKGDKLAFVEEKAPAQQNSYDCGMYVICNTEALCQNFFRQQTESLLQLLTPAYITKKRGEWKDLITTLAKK
It is filed as functional.

The target of experiment [18] is T7, Sentrin-specific protease 8. In kind it is functional. The source holds these as a separate data set.

Chain of Peroxisome proliferator-activated receptor gamma/Nuclear receptor coactivator 2 (P37231 whole entry): as the sequence (P37231 whole entry) above
Chain of Peroxisome proliferator-activated receptor gamma/Nuclear receptor coactivator 2 (Q15596 whole entry, further chain): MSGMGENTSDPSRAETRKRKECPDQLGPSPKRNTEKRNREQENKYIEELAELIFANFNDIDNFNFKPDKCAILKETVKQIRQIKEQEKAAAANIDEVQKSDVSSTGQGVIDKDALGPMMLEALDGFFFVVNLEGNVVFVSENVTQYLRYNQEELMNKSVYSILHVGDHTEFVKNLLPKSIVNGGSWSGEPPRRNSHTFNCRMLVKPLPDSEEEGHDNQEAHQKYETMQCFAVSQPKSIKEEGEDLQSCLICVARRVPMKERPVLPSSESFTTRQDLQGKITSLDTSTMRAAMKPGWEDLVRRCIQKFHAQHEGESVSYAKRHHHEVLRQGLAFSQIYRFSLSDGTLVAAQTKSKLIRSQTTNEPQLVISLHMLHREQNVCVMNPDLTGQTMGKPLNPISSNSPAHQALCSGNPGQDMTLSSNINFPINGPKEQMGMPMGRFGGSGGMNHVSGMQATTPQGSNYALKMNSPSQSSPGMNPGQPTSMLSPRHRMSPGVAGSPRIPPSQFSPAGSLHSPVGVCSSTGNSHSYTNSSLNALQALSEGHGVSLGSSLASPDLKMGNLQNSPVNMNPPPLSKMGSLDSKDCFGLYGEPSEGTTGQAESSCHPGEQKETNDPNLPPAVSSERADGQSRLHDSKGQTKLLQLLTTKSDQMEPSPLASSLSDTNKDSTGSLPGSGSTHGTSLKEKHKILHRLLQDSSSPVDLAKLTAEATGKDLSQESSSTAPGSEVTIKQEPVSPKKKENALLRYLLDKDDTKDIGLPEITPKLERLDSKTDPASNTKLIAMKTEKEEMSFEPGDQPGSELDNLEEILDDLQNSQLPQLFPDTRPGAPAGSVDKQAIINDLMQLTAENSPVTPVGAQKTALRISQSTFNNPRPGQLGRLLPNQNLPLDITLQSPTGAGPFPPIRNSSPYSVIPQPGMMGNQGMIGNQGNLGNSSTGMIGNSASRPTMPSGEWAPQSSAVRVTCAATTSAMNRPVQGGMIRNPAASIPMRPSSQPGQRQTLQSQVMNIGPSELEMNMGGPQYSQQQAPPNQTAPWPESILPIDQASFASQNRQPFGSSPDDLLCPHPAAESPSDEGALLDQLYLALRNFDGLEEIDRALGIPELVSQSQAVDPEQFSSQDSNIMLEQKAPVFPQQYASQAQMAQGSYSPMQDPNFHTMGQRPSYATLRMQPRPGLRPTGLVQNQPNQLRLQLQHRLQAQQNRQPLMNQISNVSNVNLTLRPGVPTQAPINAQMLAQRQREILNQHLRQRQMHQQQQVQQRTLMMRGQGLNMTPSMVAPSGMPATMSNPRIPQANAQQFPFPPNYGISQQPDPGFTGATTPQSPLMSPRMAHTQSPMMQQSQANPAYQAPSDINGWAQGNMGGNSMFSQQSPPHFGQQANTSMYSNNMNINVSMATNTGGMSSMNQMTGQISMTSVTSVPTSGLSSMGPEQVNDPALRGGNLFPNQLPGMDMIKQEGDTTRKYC
Chain of Tyrosine-protein phosphatase non-receptor type 7 (P35236 whole entry): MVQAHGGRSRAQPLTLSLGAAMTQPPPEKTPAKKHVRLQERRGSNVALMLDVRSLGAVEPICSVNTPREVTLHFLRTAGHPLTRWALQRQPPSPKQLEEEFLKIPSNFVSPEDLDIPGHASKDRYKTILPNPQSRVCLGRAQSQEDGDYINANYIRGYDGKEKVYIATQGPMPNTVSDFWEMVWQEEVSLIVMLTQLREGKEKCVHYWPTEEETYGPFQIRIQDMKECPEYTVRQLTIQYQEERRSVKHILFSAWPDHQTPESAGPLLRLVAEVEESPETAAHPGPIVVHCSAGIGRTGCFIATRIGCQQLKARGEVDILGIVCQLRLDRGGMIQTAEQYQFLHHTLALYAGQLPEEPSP

On to `COc1ccc(-c2cc(C(F)(F)F)n3ncc(C(=O)NCc4ccco4)c3n2)cc1`, for which the IC50 in experiment [1] was > 50 µM (not active).
Turning to `O=C(O)[C@H](O)c1ccccc1`, the IC50 in experiment [2] is > 100 µM (not active); in experiment [3], > 100 µM (not active); in [4], > 100 µM (inactive); in [5] it was > 100 µM (inactive).
In the case of `Cc1cc(NC(=O)CCc2ccc(C)o2)no1`, the IC50 in experiment [2] is > 100 µM (not active); in [3], > 100 µM (not active); in [4], > 100 µM (inactive); in experiment [5] it was > 100 µM (inactive); in experiment [6], > 100 µM (inactive).
Take `Sc1nc2cc(Cl)ccc2[nH]1`: the concentration giving a half-maximal response (EC50) in [7], in [8] and in experiment [9] was > 79.4 µM (not active) in each case. Moreover, the IC50 in experiment [10] was > 100 µM (inactive); in experiment [11], 5.27 µM (active).
As for `CCOC(=O)C1=C(C)N=C(SCC(=O)O)NC1c1ccccc1` (stereo unspecified), the EC50 in [7], in experiment [8] and in experiment [9] was > 79.4 µM (not active) each time.
Take `O=c1cc(-c2ccc(Cl)cc2)[nH][nH]1`: the IC50 in experiment [12] is < 1 µM (active); in experiment [13], > 73.5 µM (not active); in experiment [14], > 59.6 µM (not active); in experiment [17], 57 µM (active); in experiment [18], 67.7 µM (inactive). Moreover, the AC50 in experiment [15] is 2.33 µM (active). For the same compound, in experiment [16], the EC50 is 0.527 µM (active).
With `O=C(Nc1cnc2ccccc2c1)c1ccco1`, in [1], the IC50 is listed as > 50 µM (not active).
